Tests used:
M12 melanoma cells = assay: M12 melanoma cell growth inhibition in nude mice; assay type: in vivo, Balb/c nude mice; conditions: 10 mg/kg daily oral, day 25 to day 55; FIG. 2; * p<0.05
Procedure: This study was performed in groups of 10 Balb/c nude mice.
On the first day of the experiment (day 0), 2×10^6 M12 melanoma cells were transplanted into mice in the test group. When the tumor volume reached 100 mm^3, the test Compound 1 was administered orally in doses of 10 mg/kg daily to the mice. This treatment was carried out 30 times from day 25 to day 55. The tumor diameter was measured using calipers everyday after transplantation of tumor cells. The tumor volume was calculated according to the following formula.
Tumor volume (mm^3)=(long diameter)×(short diameter)^2 ×1/2

HL-60 cells [1] = assay: Differentiation of HL-60 cells (Giemsa and esterase staining); assay type: cell-based, human; conditions: day 27
Procedure: The concentration of HL-60 cells was adjusted to 1×10^5 cells/ml using RPMI-1640 medium (GIBCO) supplemented with 10% of FCS (fetal calf serum; GIBCO).
Giemsa stain solution was prepared by diluting Giemsa reagent (Merck) 50-100 times with phosphate buffer (pH 6.4).
A reagent for esterase staining (Muto Kagaku) was used according to the naphthol AS-D chloroacetate method.
HL-60 cells prepared as described above under (1) were cultivated in the same manner as in a). Cells collected on day 27 were placed on a slide glass and subjected to Giemsa staining, followed by morphological observation under a microscope. […] The results of esterase staining by the naphthol AS-D chloroacetate method indicated differentiation of 70-85% of HL-60 cells into granulocytes.

W/BF1 :(NZW×BXSB)F1 mice = assay: Blood cell analysis in autoimmune disease mice; assay type: in vivo
Procedure: W/BF1 :(NZW×BXSB)F1 mice were used at the age of 14 weeks (purchased from Kiwa Experimental Animal). Groups of 10 mice were used in each experiment.
The mice in respective groups were given a diet (Oriental Yeast), which is usually given to this kind of mice, and water.
Compound 1 (Lot No. 9D87M) was used as suspended in a 0.5% solution of carborymethylcellulose (CMC, Cellogan). Compound 1 was administered to mice by oral garage in doses of 100 and 300 mg/kg body weight/day for 6 weeks from 14 weeks of age to 20 weeks of age according to the 5-day administration and 2-day cessation schedule. As a control, an untreated group was provided. […] Statistic analysis was performed by the generalized Wilcoxon test with respect to the untreated group.
(2) For blood cell analysis, the blood was sampled from the fundus oculi at the age of 14, 16, 18 and 20 weeks. Changes in blood cell (white blood cell, red blood cell and platelet) counts were determined using an automatic blood cell analyzer (Coulter JR, Coulter). The differential (neutrophil and 11 lymphocyte) counts were determined using blood smears stained with Wright-Giemsa stain. For statistical analysis, Student's t test was used, taking the untreated group as control, on each blood sampling day.

HL-60 cells [2] = assay: Differentiation inducing test: reactivity of HL-60 cells with monoclonal antibody FH-6 (sialyl Le^X); assay type: cell-based, human; conditions: 2 hours; for Positive rate (%), FH-6: control 95
Procedure: The monoclonal antibody FH-6 capable of recognizing sialyl Le^X was fluoresein (FITC)-labeled, and the reactivity between the active ingredient compound of the present invention and FH-6 was examined by flow cytometry as follows.
The test compound solutions prepared as described above under (3) were added to HL-60 cells prepared as described above under (1) to a final concentration of 1.0 μg/ml or 10 μg/ml. Cultivation was conducted in a 5% carbon dioxide gas incubator at 37° C. for 2 hours. Thereafter, the cell concentration was adjusted to 1 x 10^6 cells/ml and 100 μl of each aliquot was reacted with 10 μl of the fluorescein-labeled FH-6 solution, followed by flow cytometry.

[3] = tested on: acute hepatic failure model; assay: Effect on hepatic failure (heat-killed bacteria / LPS), survival; assay type: in vivo, Balb/c mice; conditions: for Survival rate: 7 days after LPS, untreated 0%, solvent 10%
Procedure: Heat-killed cells of P. aches (a gift from Dr. Mizoguchi, the Third Department of Internal Medicine, Osaka City University School of Medicine) were administered intravenously in a dose of 3 mg/body to male Balb/c mice (7 weeks old, purchased from Japan SLC). Seven days later; a solvent group (0.5% CMC, Dai-ichi Kogyo Seiyaku Co., Ltd) and an untreated group, as well as the test groups given 10 or 100 mg/kg of Compound 1 orally, were provided. One hour after administration of Compound 1, 5 μg/body of lipopolysaccharide (LPS, Sigma Co., Ltd.) was administered intravenously to induce acute hepatic failure.

SMILES: COc1ccc(C(=O)N2CCN(c3ccc4c(c3)CCC(=O)N4)CC2)cc1OC [Compound 1, 6-[4-(3,4-Dimethoxybenzoyl)-1-piperazinyl]-3,4-dihydrocarbostyril]
- Growth of M12 melanoma cells (tumor volume) (M12 melanoma cells): significantly inhibits growth of M12 melanoma cells
- Morphological change, Giemsa staining (HL-60 cells [1]): differentiation into cells with granule was observed
- Differentiation of HL-60 cells into granulocytes (esterase staining) (HL-60 cells [1]; naphthol AS-D chloroacetate method): 70-85%
- Lymphocytes (W/BF1 :(NZW×BXSB)F1 mice; 100 mg/kg, 14 weeks of age): 6.55 ± 1.11 ×10^3 /mm^3
- Neutrophils (W/BF1 :(NZW×BXSB)F1 mice; 100 mg/kg, 14 weeks of age): 0.97 ± 0.21 ×10^3 /mm^3
- Platelets (W/BF1 :(NZW×BXSB)F1 mice; 100 mg/kg, 14 weeks of age): 1225.2 ± 187.6 ×10^3 /mm^3
- Red blood cells (W/BF1 :(NZW×BXSB)F1 mice; 100 mg/kg, 14 weeks of age): 9.08 ± 0.19 ×10^6 /mm^3
- White blood cells (W/BF1 :(NZW×BXSB)F1 mice; 100 mg/kg, 14 weeks of age): 7.53 ± 1.26 ×10^3 /mm^3
- Lymphocytes (W/BF1 :(NZW×BXSB)F1 mice; 100 mg/kg, 16 weeks of age): 9.83 ± 2.72 ×10^3 /mm^3
- Neutrophils (W/BF1 :(NZW×BXSB)F1 mice; 100 mg/kg, 16 weeks of age): 3.01 ± 2.14 ×10^3 /mm^3
- Platelets (W/BF1 :(NZW×BXSB)F1 mice; 100 mg/kg, 16 weeks of age): 749.6 ± 116.6 ×10^3 /mm^3
- White blood cells (W/BF1 :(NZW×BXSB)F1 mice; 100 mg/kg, 16 weeks of age): 12.91 ± 4.76 ×10^3 /mm^3
- Red blood cells (W/BF1 :(NZW×BXSB)F1 mice; 100 mg/kg, 16 weeks of age, *P < 0.05): 9.06 ± 0.19 ×10^6 /mm^3
- Lymphocytes (W/BF1 :(NZW×BXSB)F1 mice; 100 mg/kg, 18 weeks of age): 10.68 ± 3.78 ×10^3 /mm^3
- Neutrophils (W/BF1 :(NZW×BXSB)F1 mice; 100 mg/kg, 18 weeks of age): 5.82 ± 1.65 ×10^3 /mm^3
- Platelets (W/BF1 :(NZW×BXSB)F1 mice; 100 mg/kg, 18 weeks of age): 524.0 ± 105.6 ×10^3 /mm^3
- Red blood cells (W/BF1 :(NZW×BXSB)F1 mice; 100 mg/kg, 18 weeks of age): 8.46 ± 0.34 ×10^6 /mm^3
- White blood cells (W/BF1 :(NZW×BXSB)F1 mice; 100 mg/kg, 18 weeks of age): 16.49 ± 4.98 ×10^3 /mm^3
- Lymphocytes (W/BF1 :(NZW×BXSB)F1 mice; 100 mg/kg, 20 weeks of age): 8.70 ± 1.02 ×10^3 /mm^3
- Neutrophils (W/BF1 :(NZW×BXSB)F1 mice; 100 mg/kg, 20 weeks of age): 3.25 ± 1.06 ×10^3 /mm^3
- Platelets (W/BF1 :(NZW×BXSB)F1 mice; 100 mg/kg, 20 weeks of age): 341.1 ± 111.9 ×10^3 /mm^3
- White blood cells (W/BF1 :(NZW×BXSB)F1 mice; 100 mg/kg, 20 weeks of age): 11.72 ± 1.71 ×10^3 /mm^3
- Red blood cells (W/BF1 :(NZW×BXSB)F1 mice; 100 mg/kg, 20 weeks of age, *P < 0.05): 8.29 ± 0.37 ×10^6 /mm^3
- Inhibition of decrease in platelet count (in words) (W/BF1 :(NZW×BXSB)F1 mice; 300 mg/kg/day, 20 weeks of age, vs untreated): significant inhibition
- Lymphocytes (W/BF1 :(NZW×BXSB)F1 mice; 300 mg/kg, 14 weeks of age): 4.50 ± 0.63 ×10^3 /mm^3
- Neutrophils (W/BF1 :(NZW×BXSB)F1 mice; 300 mg/kg, 14 weeks of age): 0.79 ± 0.19 ×10^3 /mm^3
- Platelets (W/BF1 :(NZW×BXSB)F1 mice; 300 mg/kg, 14 weeks of age): 1316.8 ± 86.3 ×10^3 /mm^3
- Red blood cells (W/BF1 :(NZW×BXSB)F1 mice; 300 mg/kg, 14 weeks of age): 9.17 ± 0.21 ×10^6 /mm^3
- White blood cells (W/BF1 :(NZW×BXSB)F1 mice; 300 mg/kg, 14 weeks of age): 5.46 ± 0.74 ×10^3 /mm^3
- Lymphocytes (W/BF1 :(NZW×BXSB)F1 mice; 300 mg/kg, 16 weeks of age): 7.01 ± 0.92 ×10^3 /mm^3
- Neutrophils (W/BF1 :(NZW×BXSB)F1 mice; 300 mg/kg, 16 weeks of age): 1.86 ± 0.40 ×10^3 /mm^3
- Platelets (W/BF1 :(NZW×BXSB)F1 mice; 300 mg/kg, 16 weeks of age): 1055.8 ± 72.0 ×10^3 /mm^3
- Red blood cells (W/BF1 :(NZW×BXSB)F1 mice; 300 mg/kg, 16 weeks of age): 8.43 ± 0.30 ×10^6 /mm^3
- White blood cells (W/BF1 :(NZW×BXSB)F1 mice; 300 mg/kg, 16 weeks of age): 9.36 ± 1.77 ×10^3 /mm^3
- Lymphocytes (W/BF1 :(NZW×BXSB)F1 mice; 300 mg/kg, 18 weeks of age): 6.16 ± 0.88 ×10^3 /mm^3
- Neutrophils (W/BF1 :(NZW×BXSB)F1 mice; 300 mg/kg, 18 weeks of age): 5.65 ± 2.77 ×10^3 /mm^3
- Platelets (W/BF1 :(NZW×BXSB)F1 mice; 300 mg/kg, 18 weeks of age): 980.0 ± 114.4 ×10^3 /mm^3
- Red blood cells (W/BF1 :(NZW×BXSB)F1 mice; 300 mg/kg, 18 weeks of age): 8.83 ± 0.32 ×10^6 /mm^3
- White blood cells (W/BF1 :(NZW×BXSB)F1 mice; 300 mg/kg, 18 weeks of age): 11.90 ± 3.52 ×10^3 /mm^3
- Lymphocytes (W/BF1 :(NZW×BXSB)F1 mice; 300 mg/kg, 20 weeks of age): 10.73 ± 5.81 ×10^3 /mm^3
- Neutrophils (W/BF1 :(NZW×BXSB)F1 mice; 300 mg/kg, 20 weeks of age): 2.24 ± 0.23 ×10^3 /mm^3
- Red blood cells (W/BF1 :(NZW×BXSB)F1 mice; 300 mg/kg, 20 weeks of age): 7.90 ± 0.30 ×10^6 /mm^3
- White blood cells (W/BF1 :(NZW×BXSB)F1 mice; 300 mg/kg, 20 weeks of age): 12.97 ± 5.95 ×10^3 /mm^3
- Platelets (W/BF1 :(NZW×BXSB)F1 mice; 300 mg/kg, 20 weeks of age, **P < 0.01): 823.3 ± 24.5 ×10^3 /mm^3
- Red blood cell count (in words) (W/BF1 :(NZW×BXSB)F1 mice; compared with the platelet count result): A similar result was found for red blood cell count
- Effect on white blood cell count (in words) (W/BF1 :(NZW×BXSB)F1 mice; mouse, in vivo): no effect on this parameter
- Sialic acid on HL-60 cell surface (HL-60 cells [2]; 1.0 or 10 μg/ml): loss of sialic acid from the HL-60 cell surface
- Positive rate (%), FH-6 (HL-60 cells [2]; 1.0 μg/ml): 82%
- Positive rate (%), FH-6 (HL-60 cells [2]; 10 μg/ml): 76%
- Survival rate ([3]; 10 mg/kg oral): 30%
- Survival rate ([3]; 100 mg/kg oral): 70%
- Life-prolonging effect in acute hepatitis model (in words) ([3]; 10 and 100 mg/kg oral): dose-dependent and excellent life-prolonging effect
